In US20240317721A1, “PYRAZOLYL DERIVATIVES AS INHIBITORS OF THE KRAS MUTANT PROTEIN” (NOVARTIS AG, priority 2021, published 2024):

Target: KRasG12C (M1-K169, biotinylated on the N-terminus) (Homo sapiens (Human), UniProt P01116, G12C)
Experiment: Covalent competition assay: scintillation proximity assay (SPA) quantifying covalent modification of KRASG12C
Type: binding
Settings: competition with radiolabeled covalent probe (Compound B/Compound A), 2 hours incubation, 10 nM KRasG12C
Method in brief: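 Scintillation proximity readout after streptavidin bead capture (30 min) of biotinylated KRasG12C(M1-K169):GDP, 10 nM final, which was covalently labelled over 2 h by 25 nM radio-probe plus 475 nM cold probe unless blocked by compound.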

IC50	Structure (SMILES)
295 nM	C=CC(=O)N1CC2(CC(n3nc(N4CCN(C5COC5)C[C@@]4(C)COC)c(-c4c(Cl)c(C)cc5[nH]ncc45)c3C)C2)C1 (single isomer, unassigned) [Example 148b]
> 5000 nM	C=CC(=O)N1CC2(CC(n3nc(N4CC[C@@H](CN5CCC6COCC65)CC4(C)C)c(-c4c(C)c(Cl)cc5[nH]ncc45)c3C)C2)C1 (single isomer, unassigned) [Example 306a, 1-(6-(4-(6-chloro-5-methyl-1H-indazol-4-yl)-3-((R)-4-(((3aR*,6aR*)-hexahydro-1H-furo[3,4-b]pyrrol-1-yl)methyl)-2,2-dimethylpiperidin-1-yl)-5-methyl-1H-pyrazol-1-yl)-2-azaspiro[3.3]heptan-2-yl)prop-2-en-1-one]
307 nM	C=CC(=O)N1CC2(CC(n3nc(N4CC[C@@H](CN5CCN6C[C@@H](O)C[C@@H]6C5)CC4(C)C)c(-c4c(Cl)c(Cl)cc5[nH]ncc45)c3C)C2)C1 (single isomer, unassigned) [Example 287a]
7 nM	C=CC(=O)N1CC2(CC(n3nc(N4CC[C@@H](CN(C5COC5)C5COC5)CC4(C)C)c(-c4c(Cl)c(Cl)cc5[nH]ncc45)c3C)C2)C1 (single isomer, unassigned) [Example 282b]
10 nM	C=CC(=O)N1CC2(CC(n3nc(N4CC[C@@H](CN5CC6COCC(C5)O6)CC4(C)C)c(-c4c(Cl)c(Cl)cc5[nH]ncc45)c3C)C2)C1 (single isomer, unassigned) [Example 308b]
14 nM	C=CC(=O)N1CC2(CC(n3nc(N4CCC(N(C)[C@@H]5CCOC5)CC4(C)C)c(-c4c(Cl)c(C)cc5[nH]ncc45)c3C)C2)C1 (single isomer, unassigned) [Example 84b]
4900 nM	C=CC(=O)N1CC2(CC(n3nc(N4CCCC45CCOCC5)c(-c4c(Cl)c(C)cc5[nH]ncc45)c3C)C2)C1 [Example 60, 1-(6-(4-(5-chloro-6-methyl-1H-indazol-4-yl)-5-methyl-3-(8-oxa-1-azaspiro[4.5]decan-1-yl)-1H-pyrazol-1-yl)-2-azaspiro[3.3]heptan-2-yl)prop-2-en-1-one]
> 5000 nM	C=CC(=O)N1CC2(CC(n3nc(N4CC[C@@H](CN5CC6OCCN(C)C6C5)CC4(C)C)c(-c4c(Cl)c(Cl)cc5[nH]ncc45)c3C)C2)C1 (single isomer, unassigned) [Example 260a, 1-(6-(4-(5,6-dichloro-1H-indazol-4-yl)-3-((R)-2,2-dimethyl-4-(((4aR*,7aS*)-4-methylhexahydropyrrolo[3,4-b][1,4]oxazin-6(2H)-yl)methyl)piperidin-1-yl)-5-methyl-1H-pyrazol-1-yl)-2-azaspiro[3.3]heptan-2-yl)prop-2-en-1-one]
1700 nM	C=CC(=O)N1CC2(CC(n3nc(N4CCN(C[C@@H]5COCCO5)C[C@]4(C)CC)c(-c4c(O)cccc4Cl)c3C)C2)C1 [Example 111, 1-(6-(3-((S)-4-(((R)-1,4-dioxan-2-yl)methyl)-2-ethyl-2-methylpiperazin-1-yl)-4-(2-chloro-6-hydroxyphenyl)-5-methyl-1H-pyrazol-1-yl)-2-azaspiro[3.3]heptan-2-yl)prop-2-en-1-one]
10 nM	C=CC(=O)N1CC2(CC(n3nc(N4CC[C@@H](CN5CCN(CCOC)C(=O)C5)CC4(C)C)c(-c4c(Cl)c(Cl)cc5[nH]ncc45)c3C)C2)C1 (single isomer, unassigned) [Example 256b]
34 nM	C=CC(=O)N1CC2(CC(n3nc(N4CCN(C)CC45CCC5)c(-c4c(Cl)c(C)cc5[nH]ncc45)c3C)C2)C1 (single isomer, unassigned) [Example 55b, 1-(6-(4-(5-chloro-6-methyl-1H-indazol-4-yl)-5-methyl-3-(8-methyl-5,8-diazaspiro[3.5]nonan-5-yl)-1H-pyrazol-1-yl)-2-azaspiro[3.3]heptan-2-yl)prop-2-en-1-one]
> 50000 nM	C=CC(=O)N1CC2(CC(n3nc(N4CCN(CCOC)CC4(C)C)c(-c4c(Cl)c(C)cc5[nH]ncc45)c3C)C2)C1 (single isomer, unassigned) [Example 170a, 1-(6-(4-(5-chloro-6-methyl-1H-indazol-4-yl)-3-(4-(2-methoxyethyl)-2,2-dimethylpiperazin-1-yl)-5-methyl-1H-pyrazol-1-yl)-2-azaspiro[3.3]heptan-2-yl)prop-2-en-1-one]
46 nM	C=CC(=O)N1CC2(CC(n3nc(N4CCN(C5CCOCC5)CC4(C)C)c(-c4c(Cl)c(C)cc5[nH]ncc45)c3C)C2)C1 (single isomer, unassigned) [Example 134b, 1-(6-(4-(5-chloro-6-methyl-1H-indazol-4-yl)-3-(2,2-dimethyl-4-(tetrahydro-2H-pyran-4-yl)piperazin-1-yl)-5-methyl-1H-pyrazol-1-yl)-2-azaspiro[3.3]heptan-2-yl)prop-2-en-1-one]
> 5000 nM	C=CC(=O)N1CC2(CC(n3nc(N4CCN(C[C@@H]5COCCO5)CC45CCC5)c(-c4c(Cl)c(C)cc5[nH]ncc45)c3C)C2)C1 (single isomer, unassigned) [Example 169a]
> 5000 nM	C/C=C/C(=O)N1CC2(CC(n3nc(N4CCN(C5COC5)CC45CCC5)c(-c4c(Cl)c(C)cc5[nH]ncc45)c3C)C2)C1 (single isomer, unassigned) [Example 138a, (E)-1-(6-(4-(5-chloro-6-methyl-1H-indazol-4-yl)-5-methyl-3-(8-(oxetan-3-yl)-5,8-diazaspiro[3.5]nonan-5-yl)-1H-pyrazol-1-yl)-2-azaspiro[3.3]heptan-2-yl)but-2-en-1-one]
> 5000 nM	C=CC(=O)N1CC2(CC(n3nc(N4CC[C@@H](CN5CCOCC5)CC4(C)C)c(-c4c(Cl)c(C)cc5[nH]nc(C)c45)c3C#N)C2)C1 (single isomer, unassigned) [Example 225b]
6 nM	C=CC(=O)N1CC2(CC(n3nc(N4CCN(Cc5cn(C)nn5)C[C@]4(C)CC)c(-c4c(Cl)c(C)cc5[nH]ncc45)c3C)C2)C1 (single isomer, unassigned) [Example 188b]
405 nM	C=CC(=O)N1CC2(CC(n3nc(N4CC[C@@H](CN5CCn6cnnc6C5)CC4(C)C)c(-c4c(Cl)c(Cl)cc5[nH]ncc45)c3C)C2)C1 (single isomer, unassigned) [Example 250a]
> 50000 nM	C=CC(=O)N1CC2(CC(n3nc(N4CCN(C(C)=O)CC4(C)C)c(-c4c(Cl)c(C)cc5[nH]ncc45)c3C3CC3)C2)C1 (single isomer, unassigned) [Example 24a, 1-(6-(3-(4-acetyl-2,2-dimethylpiperazin-1-yl)-4-(5-chloro-6-methyl-1H-indazol-4-yl)-5-cyclopropyl-1H-pyrazol-1-yl)-2-azaspiro[3.3]heptan-2-yl)prop-2-en-1-one]
10 nM	C=CC(=O)N1CC2(CC(n3nc(N4CCN(CCOC)CC45CCC5)c(-c4c(Cl)c(Cl)cc5[nH]ncc45)c3C)C2)C1 (single isomer, unassigned) [Example 76b, 1-(6-(4-(5,6-dichloro-1H-indazol-4-yl)-3-(8-(2-methoxyethyl)-5,8-diazaspiro[3.5]nonan-5-yl)-5-methyl-1H-pyrazol-1-yl)-2-azaspiro[3.3]heptan-2-yl)prop-2-en-1-one]
> 50000 nM	C=CC(=O)N1CC2(CC(n3nc(N4CCN(S(C)(=O)=O)CC4(C)C)c(-c4c(Cl)c(C)cc5[nH]ncc45)c3C)C2)C1 (single isomer, unassigned) [Example 126a, 1-(6-(4-(5-chloro-6-methyl-1H-indazol-4-yl)-3-(2,2-dimethyl-4-(methylsulfonyl)piperazin-1-yl)-5-methyl-1H-pyrazol-1-yl)-2-azaspiro[3.3]heptan-2-yl)prop-2-en-1-one]
12 nM	C=CC(=O)N1CC2(CC(n3nc(N4CC[C@@H](CN5CCOCC5)CC4(C)C)c(-c4c(Cl)c(Cl)cc5[nH]ncc45)c3C)C2)C1 (single isomer, unassigned) [Example 213b]
> 5000 nM	C=CC(=O)N1CC2(CC(n3nc(N4CCN(CCO)CC4(C)C)c(-c4c(Cl)c(C)cc5[nH]ncc45)c3C)C2)C1 (single isomer, unassigned) [Example 163a, 1-(6-(4-(5-chloro-6-methyl-1H-indazol-4-yl)-3-(4-(2-hydroxyethyl)-2,2-dimethylpiperazin-1-yl)-5-methyl-1H-pyrazol-1-yl)-2-azaspiro[3.3]heptan-2-yl)prop-2-en-1-one]
3200 nM	C=CC(=O)N1CC2(CC(n3nc(N4CCN(C(C)=O)CC4)c(-c4c(C)c(C)cc5[nH]ncc45)c3C)C2)C1 (single isomer, unassigned) [Example 2b, 1-(6-(3-(4-acetylpiperazin-1-yl)-4-(5,6-dimethyl-1H-indazol-4-yl)-5-methyl-1H-pyrazol-1-yl)-2-azaspiro[3.3]heptan-2-yl)prop-2-en-1-one]
2500 nM	C=CC(=O)N1CC2(CC(n3nc(N4CCC(CN5CCS(=O)(=O)CC5)CC4(C)C)c(-c4c(Cl)c(Cl)cc5[nH]ncc45)c3C)C2)C1 (single isomer, unassigned) [Example 236b, 1-(6-(4-(5,6-dichloro-1H-indazol-4-yl)-3-(4-((1,1-dioxidothiomorpholino)methyl)-2,2-dimethylpiperidin-1-yl)-5-methyl-1H-pyrazol-1-yl)-2-azaspiro[3.3]heptan-2-yl)prop-2-en-1-one]
> 50000 nM	C=CC(=O)N1CC2(CC(n3nc(N4CCN(C(C)=O)CC4)c(-c4c(Cl)ccc5[nH]ncc45)c3C)C2)C1C (single isomer, unassigned) [Example 196a, 1-(6-(3-(4-acetylpiperazin-1-yl)-4-(5-chloro-1H-indazol-4-yl)-5-methyl-1H-pyrazol-1-yl)-1-methyl-2-azaspiro[3.3]heptan-2-yl)prop-2-en-1-one]
> 5000 nM	C=CC(=O)N1CC2(CC(n3nc(N4CCN(CCO)CC45CCC5)c(-c4c(Cl)c(C)cc5[nH]ncc45)c3C)C2)C1 (single isomer, unassigned) [Example 162a, 1-(6-(4-(5-chloro-6-methyl-1H-indazol-4-yl)-3-(8-(2-hydroxyethyl)-5,8-diazaspiro[3.5]nonan-5-yl)-5-methyl-1H-pyrazol-1-yl)-2-azaspiro[3.3]heptan-2-yl)prop-2-en-1-one]
